Where two headings read alike, the source gives them in different places.
Tests used:
CHIKV = assay: Cytopathic effect reduction, Chikungunya virus in Vero cells, MTT; format: cell-based; conditions: 72 h, read-out: EC50 CHIKV
ZIKV = assay: Reduction in viral infection, zika virus in Vero cells, immunofluorescence (4G2 antibody); format: cell-based, Zikavirus (MR766); conditions: 72 h, day 3 after infection
in vitro [1] = conditions: dog
[2] = Cytotoxicity (CC50) in Vero cells; conditions: African green monkey
DENV = assay: Reduction in viral infection, dengue virus in Vero cells, immunofluorescence (4G2 antibody); format: cell-based, Dengue virus New Guinea C (NGC); conditions: 72 h, read-out: EC50 DENV
MERS-CoV = assay: microbe, parasite or virus in culture; format: cell-based, MERS virus (MERS-CoV/KOR/KNIH/002_05_2015); conditions: Middle East respiratory syndrome-related coronavirus, Huh-7, 72 h, read-out: EC50 MERS-CoV
in vitro [3] = conditions: human
Influenza virus B/Lee/40 = assay: Cytopathic effect reduction, influenza B Lee in MDCK cells, MTT; format: cell-based; conditions: for Selectivity index FluB Lee: CC50/EC50; for EC50: read-out: Anti-Flu activity EC50 FluB Lee
MDCK cells = conditions: read-out: Toxicity CC50, day 3, MTT
in vitro [4] = conditions: cat
[5] = tested on: Madin-Darby Canine Kidney (MDCK) cells; conditions: 100 μM for 3 days; cited from earlier work
in vitro [6] = conditions: human; remark: listed apart in the source
FIPV = assay: Cytopathic effect reduction, FIPV in CRFK cells, MTT; format: cell-based, feline infectious peritonitis virus (FIPV); conditions: Alphacoronavirus 1, 72 h; CRFK cells, day 3 after infection; read-out: EC50 FIPV
hCoV (229E) = assay: microbe, parasite or virus in culture; format: cell-based, Human coronavirus hCoV 229E; conditions: MRC5, 72 h; MRC-5 cells, day 3 after infection; read-out: EC50 hCoV (229E)
[7] = CC50 (CHIKV), Vero cells, CHIKV test, MTT
[8] = CC50 (DENV), Vero cells, DENV test

**Q.** Which results are given for `O=C(Nc1ccn(C2O[C@H](CO)[C@@H](O)[C@H]2F)c(=O)n1)c1ccncn1` (stereo in doubt) [Example 36, N-(1-((2S,3R,4R,5R)-3-fluoro-4-hydroxy-5-(hydroxymethyl)tetrahydrofuran-2-yl)-2-oxo-1,2-dihydropyrimidin-4-yl)pyrimidine-4-carboxamide]?
**A.** EC50 (CHIKV): 57.7 µM; EC50 (ZIKV): > 100 µM; CC50 at 3 days (in vitro [1]): > 100 µM; CC50 at 3 days [2, 7]: > 100 µM; CC50 at 3 days [2, 8]: > 100 µM; CC50 at 3 days ([2]; CC50, Vero cells, ZIKV test): > 100 µM; EC50 (DENV): > 100 µM; EC50 (MERS-CoV): > 100 µM; CC50 at 3 days (in vitro [3]): > 100 µM; Selectivity index FluB Lee (Influenza virus B/Lee/40): >8.8; EC50 (Influenza virus B/Lee/40; MDCK, 72 h): 11.4 µM

**Q.** Which results are given for `N#Cc1ccc(C(=O)Nc2ccn(C3O[C@H](CO)[C@@H](O)[C@H]3F)c(=O)n2)nc1` (stereo in doubt) [Example 37, 5-cyano-N-(1-((2S,3R,4R,5R)-3-fluoro-4-hydroxy-5-(hydroxymethyl)tetrahydrofuran-2-yl)-2-oxo-1,2-dihydropyrimidin-4-yl)picolinamide]?
**A.** EC50 (CHIKV): 51.7 µM; EC50 (ZIKV): > 100 µM; CC50 at 3 days (in vitro [1]): > 100 µM; CC50 at 3 days [2, 7]: > 100 µM; CC50 at 3 days [2, 8]: > 100 µM; CC50 at 3 days ([2]; CC50, Vero cells, ZIKV test): > 100 µM; EC50 (DENV): > 100 µM; EC50 (MERS-CoV): > 100 µM; CC50 at 3 days (in vitro [3]): > 100 µM; Selectivity index FluB Lee (Influenza virus B/Lee/40): >6.6; EC50 (Influenza virus B/Lee/40; MDCK, 72 h): 15.1 µM

**Q.** For `Nc1ccn([C@@H]2O[C@H](CO)[C@@H](O)[C@H]2F)c(=O)n1` [2′-FdC, reference compound], which CC50 (MDCK cells) is on record?
**A.** > 100 µM

**Q.** What about the EC50 (Influenza virus B/Lee/40) of the same compound?
**A.** 5.2 µM

**Q.** With `Nc1ccn([C@@H]2O[C@H](CO)[C@@H](O)C2(F)F)c(=O)n1` [Gemcitabine, reference compound] as the compound, how does the CC50 (in vitro [4]) read?
**A.** 92 µM

**Q.** What about the CC50 (in vitro [1]) of the same compound?
**A.** 241 µM

**Q.** What about the EC50 (MERS-CoV) of the same compound?
**A.** 1.1 µM

**Q.** What about the cell death [5] of the same compound?
**A.** about 50%

**Q.** And the CC50 at 3 days (in vitro [3])?
**A.** > 100 µM

**Q.** What about the “Selectivity index FluB Lee” value (Influenza virus B/Lee/40) of the same compound?
**A.** 185.2

**Q.** And the EC50 (Influenza virus B/Lee/40; MDCK, 72 h)?
**A.** 1.3 µM

**Q.** What about the CC50 (in vitro [6]) of the same compound?
**A.** > 100 µM

**Q.** What about the EC50 (FIPV) of the same compound?
**A.** 21 µM

**Q.** What about the EC50 (hCoV (229E)) of the same compound?
**A.** 0.44 µM

From patent US11655268B2, “Nucleoside or nucleotide derivatives, and uses thereof” (ST Pharm Co., Ltd., priority 2018, dated 2023)
